Assay results as given in ChEMBL document CHEMBL4414565, “Furanocoumarins from the Roots of Angelica dahurica with Inhibitory Activity against Intracellular Reactive Oxygen Species Accumulation” (J Nat Prod, 2019).

Assays:
HepG2 [1] = assay: Cytotoxicity against human HepG2 cells assessed as cell viability at 10 uM incubated for 1 hr by EZ-Cytox cell viability assay; assay type: cell-based; details: hepg2, 1 h
HepG2 [2] = assay: Hepatoprotective activity against H2O2-induced cell death in human HepG2 cells assessed as cell viability at 10 uM preincubated for 1 hr followed by H2O2-stimulation and measured after 24 hrs by EZ-Cytox cell viability assay (reference value: 43.9 +/- 5.25%); assay type: functional; details: read-out: Activity
HepG2 [3] = assay: Inhibition of H2O2-induced ROS accumulation in human HepG2 cells assessed as ROS generation at 10 uM preincubated for 1 hr followed by H2O2-stimulation and measured after 30 mins by H2DCFDA staining based flow cytometry (reference value: 100 +/- 11.53%); assay type: functional; design: scale not given: the % may be the effect or the level left
HepG2 [4] = assay: Hepatoprotective activity against H2O2-induced cell death in human HepG2 cells assessed as cell viability at 50 uM preincubated for 1 hr followed by H2O2-stimulation and measured after 24 hrs by EZ-Cytox cell viability assay (reference value: 43.9 +/- 5.25%); assay type: functional; details: read-out: Activity
HepG2 [5] = assay: Inhibition of H2O2-induced ROS accumulation in human HepG2 cells at 50 uM assessed as ROS generation preincubated for 1 hr followed by H2O2-stimulation and measured after 30 mins by H2DCFDA staining based flow cytometry (reference value: 100 +/- 11.53%); assay type: functional; design: scale not given: the % may be the effect or the level left

| SMILES | Activity (HepG2 [1]) | viability at 10 µM (HepG2 [2]) [%] | Activity (HepG2 [3]) [%] | viability at 50 µM (HepG2 [4]) [%] | Activity (HepG2 [5]) [%] |
| --- | --- | --- | --- | --- | --- |
| C/C=C/c1cc(OC)c(OC)c(OC)c1 | Non-Toxic | 62.2 | 75.8 | – | – |
| COc1c2ccoc2c(OC[C@@H](O)C(C)(C)OC)c2oc(=O)ccc12 | Non-Toxic | 40.4 | 52 | – | – |
| CC1(C)O[C@@H]1COc1c2ccoc2cc2oc(=O)ccc12 | Non-Toxic | 59.3 | 103.9 | – | – |
| COc1c2ccoc2c(O)c2oc(=O)ccc12 | Non-Toxic | 34.6 | 38.1 | – | – |
| COc1c2c(c(OCC=C(C)C)c3occc13)O[C@]1(C=C2)O[C@H](COc2c3ccoc3cc3oc(=O)ccc23)C(C)(C)O1 | Non-Toxic | 64.1 | 79.9 | – | – |
| COc1c2ccoc2c(OC/C=C(/C)COC(=O)CC(C)C)c2oc(=O)ccc12 | Non-Toxic | 58.5 | 90.1 | – | – |
| CC(C)=CCOc1c2occc2c(OC[C@@H](O)C(C)(C)O)c2ccc(=O)oc12 | Non-Toxic | 51 | 78 | – | – |
| CC(C)=CCOc1c2occc2c(OC[C@H]2OC2(C)C)c2ccc(=O)oc12 | Non-Toxic | 56.2 | 65.5 | – | – |
| C=C(C)[C@H](O)COc1c2ccoc2c(OCC=C(C)C)c2oc(=O)ccc12 | Non-Toxic | 50.9 | 63.9 | – | – |
| COc1c2c(c(OCC=C(C)C)c3occc13)O[C@@]1(C=C2)O[C@H](COc2c3ccoc3cc3oc(=O)ccc23)C(C)(C)O1 | Non-Toxic | 63 | 100 | – | – |
| CC(C)=CCOc1c2ccoc2c(OCC(O)C(C)(C)O)c2oc(=O)ccc12 (single isomer, unassigned; (-)) | Non-Toxic | 61.1 | 85.3 | – | – |
| COc1c2ccoc2cc2oc(=O)ccc12 [BERGAPTEN] | Non-Toxic | 60.3 | 92.7 | – | – |
| COc1c2ccoc2c(OC[C@@H](O)C(C)(C)O)c2oc(=O)ccc12 [BYAKANGELICIN] | Non-Toxic | 46.5 | 57.9 | – | – |
| CC(C)=CCOc1c2ccoc2cc2oc(=O)ccc12 [ISOIMPERATORIN] | Non-Toxic | 67 | 71.1 | – | – |
| COc1c2occc2c(OCC=C(C)C)c2ccc(=O)oc12 [KINIDILIN] | Non-Toxic | 60.5 | 51.3 | – | – |
| COc1c2occc2cc2ccc(=O)oc12 [METHOXSALEN] | Non-Toxic | 56.5 | 77 | – | – |
| CC(C)(O)[C@H](O)COc1c2ccoc2cc2oc(=O)ccc12 [OXYPEUCEDANIN HYDRATE] | Non-Toxic | 47.5 | 92.8 | – | – |
| CC(C)=CCOc1c2occc2cc2ccc(=O)oc12 [PENTOSALEN] | Non-Toxic | 71.5 | 77.1 | – | – |
| COc1c2ccoc2c(OCC=C(C)C)c2oc(=O)ccc12 [PHELLOPTERIN] | Non-Toxic | 57.6 | 58.3 | – | – |
| O=c1ccc2cc3ccoc3cc2o1 [PSORALEN] | Non-Toxic | 55.5 | 101.4 | – | – |
| O=C(/C=C/c1ccc(O)c(O)c1)O[C@H](Cc1ccc(O)c(O)c1)C(=O)O [ROSMARINIC ACID] | – | – | – | 65.3 | 49.3 |
